Experimental data reported in PMC4062819, “N-Demethylation and N-oxidation of imipramine in rat thoracic aortic endothelial cells” (In Vitro Cellular & Developmental Biology. Animal, 2014).

Columns and labels:
[1] = system: T1, FMO (flavin-containing monooxygenase); assay: imipramine N-oxide formation in cell homogenate, HPLC-UV; assay type: biochemical, Rattus norvegicus; details: NADPH-regenerating system, pH 7.4, 37 °C, apparent Km, FMO isoform unresolved
T1 construct: gene Fmo1; native, homogenate of cultured thoracic aortic endothelial cells; FMO isoform not resolved
From the text: imipramine N-oxide formation in cell homogenate, HPLC-UV on FMO (flavin-containing monooxygenase)

CYP2C11 and CYP3A2 = details: read-out: K m (μmol/L); NADPH-regenerating system; pH 7.4; 37 °C; apparent Km; homogenate, mixed CYPs assigned by anti-CYP antibodies
From the text: desipramine (N-demethylate) formation in cell homogenate, HPLC-UV on CYP2C11 and CYP3A2

[2] = system: T1, FMO (flavin-containing monooxygenase); assay: inhibition of imipramine N-oxidation in cell homogenate, HPLC-UV; assay type: biochemical, Rattus norvegicus; details: competitive with imipramine, methimazole 1 μmol/L, NADPH-regenerating system, 37 °C, FMO isoform unresolved, read-out: apparent K i

| SMILES | Km [1] [µM] | Km (CYP2C11 and CYP3A2) [µmol/L] | Ki [2] [nM] |
| --- | --- | --- | --- |
| CN(C)CCCN1c2ccccc2CCc2ccccc21 [imipramine] | 20 ± 4.5 | 39.9 ± 5.3 | – |
| Cn1cc[nH]c1=S [methimazole] | – | – | 800 |
